Test results reported in patent publication US6355799B1, “Substituted benzene compounds, process for their preparation, and herbicidal and defoliant compositions containing them” (ISK Americas Incorporated, priority 1997, dated 2002).

Columns and labels:
Format in all cases: in vivo
[1] = system: redroot pigweed (Amaranthus retroflexus, AMARE); experiment: Pre-emerge test, greenhouse herbicide activity screening; details: pre-emerge, 14 days after application, scale 0-100
Summary of the method: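 Plants grown in 10 cm pots of sandy loam mix received acetone-dissolved compounds through a moving flat-fan nozzle. Doses ranged from 15 to 1000 g ai/ha. Pre-emerge pots were seeded one day earlier, post-emerge pots 8–21 days earlier. Fourteen days on, each pot was graded 0–100 for damage.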

[2] = system: field corn (Zea mays L., var. Dekalb 535, CORN); experiment: Post-emerge test, crop safety; details: post-emerge, 14 days after application, rating scale 0-100
Summary of the method: (§1)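 Compounds in acetone were track-sprayed at 15-1000 g ai/ha (187 l/ha) on sandy loam pots: pre-emerge one day after seeding, post-emerge at 2-3 leaf stage with 0.25% v/v non-ionic surfactant. Phytotoxicity was rated 14 days later on a 0 (no damage) to 100 (complete death) scale.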

[3] = system: upland rice (Oryza sp., var. Tebonnet, RICE); experiment: Post-emerge test, crop safety; details: post-emerge, 14 days after application, rating scale 0-100
Summary of the method: as §1

[4] = system: velvetleaf (Abutilon theophrasti, ABUTH); experiment: Pre-emerge test, greenhouse herbicide activity screening; details: pre-emerge, 14 days after application, scale 0-100
Summary of the method: as §1

[5] = system: lambsquarters (Chenopodium album, CHEAL); experiment: as above; details: pre-emerge, 14 days after application, scale 0-100
Summary of the method: as §1

[6] = system: ivyleaf morningglory (Ipomoea hederacea, IPOHE); experiment: as above; details: pre-emerge, 14 days after application, scale 0-100
Summary of the method: as §1

[7] = system: sicklepod (Cassia obtusifolia, CASOB); experiment: as above; details: pre-emerge, 14 days after application, scale 0-100
Summary of the method: as §1

[8] = system: barnyardgrass (Echinochloa crus-galli, ECHCG); experiment: as above; details: pre-emerge, 14 days after application, scale 0-100
Summary of the method: as §1

[9] = system: johnsongrass (Sorghum halepense, SORHA); experiment: as above; details: pre-emerge, 14 days after application, scale 0-100
Summary of the method: as §1

[10] = system: green foxtail (Setaria viridis, SETVI); experiment: as above; details: pre-emerge, 14 days after application, scale 0-100
Summary of the method: as §1

[11] = system: large crabgrass (Digitaria sanguinalis, DIGSA); experiment: as above; details: pre-emerge, 14 days after application, scale 0-100
Summary of the method: as §1

[12] = system: velvetleaf (Abutilon theophrasti, ABUTH); experiment: Post-emerge test, greenhouse herbicide activity screening; details: post-emerge, 14 days after application, rating scale 0-100
Summary of the method: (§2)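 Visual ratings on a 0-100 scale (0 no damage, 100 all plants dead) were taken at 14 days after treatment. Rates of 15-1000 g ai/ha in acetone, 187 l/ha, were sprayed onto soil one day after planting (pre-emerge) or onto 2-3 leaf plants with 0.25% v/v surfactant (post-emerge).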

[13] = system: lambsquarters (Chenopodium album, CHEAL); experiment: as above; details: post-emerge, 14 days after application, rating scale 0-100
Summary of the method: as §2

[14] = system: ivyleaf morningglory (Ipomoea hederacea, IPOHE); experiment: as above; details: post-emerge, 14 days after application, rating scale 0-100
Summary of the method: as §2

[15] = system: sicklepod (Cassia obtusifolia, CASOB); experiment: as above; details: post-emerge, 14 days after application, rating scale 0-100
Summary of the method: as §2

[16] = system: barnyardgrass (Echinochloa crus-galli, ECHCG); experiment: as above; details: post-emerge, 14 days after application, rating scale 0-100
Summary of the method: as §2

[17] = system: redroot pigweed (Amaranthus retroflexus, AMARE); experiment: as above; details: post-emerge, 14 days after application, rating scale 0-100
Summary of the method: as §2

[18] = system: green foxtail (Setaria viridis, SETVI); experiment: as above; details: post-emerge, 14 days after application, rating scale 0-100
Summary of the method: as §2

[19] = system: large crabgrass (Digitaria sanguinalis, DIGSA); experiment: as above; details: post-emerge, 14 days after application, rating scale 0-100
Summary of the method: as §2

[20] = system: field corn (Zea mays L., var. Dekalb 535, CORN); experiment: Pre-emerge test, crop safety; details: pre-emerge, 14 days after application, scale 0-100
Summary of the method: (§3)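 Sandy loam pots; pre-emerge: sown 1 d pre-spray, surface-watered after, then bottom-watered. Post-emerge: sown 8–21 d before, 2–3 leaf stage, + 0.25% v/v NIS, bottom-watered. Acetone, 187 l/ha track spray, 15–1000 g ai/ha. 0–100 injury score, day 14.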

[21] = system: upland rice (Oryza sp., var. Tebonnet, RICE); experiment: Pre-emerge test, crop safety; details: pre-emerge, 14 days after application, scale 0-100
Summary of the method: as §3

Cn1c(C(F)(F)F)cc(=O)n(-c2ccc(Cl)cc2NC(=O)C=Cc2ccccc2)c1=O [2-137]
10: CORN phytotoxicity rating (crop damage) ([2]; 63 g ai/ha) | RICE phytotoxicity rating (crop damage) ([3]; 63 g ai/ha) | phytotoxicity rating ECHCG ([8]; 63 g ai/ha) | SETVI phytotoxicity rating ([18]; 63 g ai/ha) | DIGSA phytotoxicity rating ([19]; 250 g ai/ha) | phytotoxicity rating CORN (crop damage) ([20]; 250 g ai/ha)
70: RICE phytotoxicity rating (crop damage) ([3]; 250 g ai/ha) | phytotoxicity rating SORHA ([9]; 250 g ai/ha)
80: phytotoxicity rating ABUTH ([4]; 63 g ai/ha)
60: CORN phytotoxicity rating (crop damage) ([2]; 250 g ai/ha) | phytotoxicity rating SETVI ([10]; 250 g ai/ha)
0: phytotoxicity rating SORHA ([9]; 63 g ai/ha) | ECHCG phytotoxicity rating ([16]; 63 g ai/ha) | DIGSA phytotoxicity rating ([19]; 63 g ai/ha) | phytotoxicity rating CORN (crop damage) ([20]; 63 g ai/ha)
20: phytotoxicity rating RICE (crop damage) ([21]; 63 g ai/ha)
100: phytotoxicity rating AMARE ([1]; 63 g ai/ha) | phytotoxicity rating AMARE ([1]; 250 g ai/ha) | phytotoxicity rating ABUTH ([4]; 250 g ai/ha) | phytotoxicity rating CHEAL ([5]; 63 g ai/ha) | phytotoxicity rating CHEAL ([5]; 250 g ai/ha) | phytotoxicity rating DIGSA ([11]; 250 g ai/ha) | ABUTH phytotoxicity rating ([12]; 63 g ai/ha) | ABUTH phytotoxicity rating ([12]; 250 g ai/ha) | CHEAL phytotoxicity rating ([13]; 63 g ai/ha) | CHEAL phytotoxicity rating ([13]; 250 g ai/ha) | IPOHE phytotoxicity rating ([14]; 63 g ai/ha) | CASOB phytotoxicity rating ([15]; 63 g ai/ha) | AMARE phytotoxicity rating ([17]; 63 g ai/ha) | AMARE phytotoxicity rating ([17]; 250 g ai/ha)
50: phytotoxicity rating CASOB ([7]; 63 g ai/ha) | phytotoxicity rating CASOB ([7]; 250 g ai/ha) | phytotoxicity rating ECHCG ([8]; 250 g ai/ha) | phytotoxicity rating DIGSA ([11]; 63 g ai/ha) | phytotoxicity rating RICE (crop damage) ([21]; 250 g ai/ha)
30: phytotoxicity rating IPOHE ([6]; 63 g ai/ha) | phytotoxicity rating IPOHE ([6]; 250 g ai/ha) | phytotoxicity rating SETVI ([10]; 63 g ai/ha) | ECHCG phytotoxicity rating ([16]; 250 g ai/ha) | SETVI phytotoxicity rating ([18]; 250 g ai/ha)
90: IPOHE phytotoxicity rating ([14]; 250 g ai/ha) | CASOB phytotoxicity rating ([15]; 250 g ai/ha)

COc1c(Cl)cc(F)c(-n2c(=O)cc(C(F)(F)F)n(C)c2=O)c1NC(=O)COc1ccc(Cl)cc1Cl [2-154]
10: CORN phytotoxicity rating (crop damage) ([2]; 63 g ai/ha) | DIGSA phytotoxicity rating ([19]; 63 g ai/ha) | phytotoxicity rating CORN (crop damage) ([20]; 63 g ai/ha)
85: CORN phytotoxicity rating (crop damage) ([2]; 250 g ai/ha) | phytotoxicity rating DIGSA ([11]; 63 g ai/ha) | DIGSA phytotoxicity rating ([19]; 250 g ai/ha)
95: phytotoxicity rating CASOB ([7]; 250 g ai/ha) | phytotoxicity rating ECHCG ([8]; 250 g ai/ha) | phytotoxicity rating SORHA ([9]; 250 g ai/ha) | phytotoxicity rating DIGSA ([11]; 250 g ai/ha) | ECHCG phytotoxicity rating ([16]; 250 g ai/ha) | SETVI phytotoxicity rating ([18]; 250 g ai/ha)
90: RICE phytotoxicity rating (crop damage) ([3]; 250 g ai/ha) | phytotoxicity rating CORN (crop damage) ([20]; 250 g ai/ha)
100: phytotoxicity rating AMARE ([1]; 63 g ai/ha) | phytotoxicity rating AMARE ([1]; 250 g ai/ha) | phytotoxicity rating ABUTH ([4]; 63 g ai/ha) | phytotoxicity rating ABUTH ([4]; 250 g ai/ha) | phytotoxicity rating CHEAL ([5]; 63 g ai/ha) | phytotoxicity rating CHEAL ([5]; 250 g ai/ha) | phytotoxicity rating IPOHE ([6]; 250 g ai/ha) | phytotoxicity rating SETVI ([10]; 250 g ai/ha) | ABUTH phytotoxicity rating ([12]; 63 g ai/ha) | ABUTH phytotoxicity rating ([12]; 250 g ai/ha) | CHEAL phytotoxicity rating ([13]; 63 g ai/ha) | CHEAL phytotoxicity rating ([13]; 250 g ai/ha) | IPOHE phytotoxicity rating ([14]; 63 g ai/ha) | IPOHE phytotoxicity rating ([14]; 250 g ai/ha) | CASOB phytotoxicity rating ([15]; 250 g ai/ha) | AMARE phytotoxicity rating ([17]; 63 g ai/ha) | AMARE phytotoxicity rating ([17]; 250 g ai/ha)
50: phytotoxicity rating ECHCG ([8]; 63 g ai/ha) | CASOB phytotoxicity rating ([15]; 63 g ai/ha)
60: phytotoxicity rating CASOB ([7]; 63 g ai/ha)
35: phytotoxicity rating RICE (crop damage) ([21]; 63 g ai/ha)
65: RICE phytotoxicity rating (crop damage) ([3]; 63 g ai/ha)
70: phytotoxicity rating SETVI ([10]; 63 g ai/ha) | phytotoxicity rating RICE (crop damage) ([21]; 250 g ai/ha)
80: phytotoxicity rating IPOHE ([6]; 63 g ai/ha) | phytotoxicity rating SORHA ([9]; 63 g ai/ha) | ECHCG phytotoxicity rating ([16]; 63 g ai/ha)
40: SETVI phytotoxicity rating ([18]; 63 g ai/ha)
